Measurements: patent publication US20050004070A1, “Anti-infectious carbohydrates” (priority 2001, published 2005)
“Also recorded” adds a separate entry of the source.

Tested on: listeria bacteria, in particular Listeria monocytogenes
Experiment: Invasion and infection of mammal cells by listeria bacteria
Assay type: cell-based
Conditions: no method or numbers given

| Compound | inhibitory action against listeria bacteria (invasion and infection of mammal cells) |
| --- | --- |
| LNFP III | did not shown any such action |
| CC(=O)N[C@H]1[C@H](O[C@H]2[C@@H](O)[C@@H](CO)O[C@@H](O[C@@H]([C@H](O)[C@@H](O)C=O)[C@H](O)CO)[C@@H]2O)O[C@H](CO)[C@@H](O[C@@H]2O[C@@H](C)[C@@H](O)[C@@H](O)[C@@H]2O)[C@@H]1O[C@@H]1O[C@H](CO)[C@H](O)[C@H](O)[C@H]1O [LNFP II] | did not shown any such action |
| lacto-N-fucopentaose I [LNFP I] | particularly strong inhibitory effect; also recorded: strong, yet dose-dependant inhibitory action |
